Structures are written as SMILES.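 Interpolation was linear, between the two tested concentrations surrounding the appropriate level; five concentrations were tested over 48 hours in 96-well plates. GI50 marks 50% less growth. At the TGI there is no net growth.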

One test relates to LXFL 529 NSCLC. The experiment in a line: growth of human tumour cells (NCI), 48 h.
The compound `COC(=O)CC(=O)C[P+](c1ccccc1)(c1ccccc1)c1ccccc1` returned a TGI of more than 218 µM.

`CCCCN(CCCC)C(=O)C(=O)C(C#N)c1ccc(C)cc1` (configuration not stated) registered a TGI of more than 100 µM.

The compound `Cc1ccc(S(=O)(=O)C(CC(=O)N2CCCC2)C(=O)c2ccccc2)cc1` (configuration not stated) yielded a TGI of more than 100 µM.

As for `CC1(C)CC(/C=C2/OC(=O)c3ccccc32)=C(C#N)C(=O)O1`, the TGI was more than 100 µM.

For the compound `Cc1nc2c(nc1Cl)nc(Oc1ccc(Cl)cc1)c1ccccc12`, the TGI was more than 100 µM.

Compound `CC(=O)Nc1ccccc1Sc1ccccc1` returned a TGI of more than 100 µM.

In turn, `CC1OC(n2cc(F)c(=O)[nH]c2=O)CCC1O` (configuration not stated) displayed a TGI of more than 100 µM.

With `COC(=O)C[C@H]1CCC2(OCCO2)[C@]1(C)C(=O)OC`, the TGI is more than 100 µM.

In turn, `CCCCCCCCCC[C@@H](O)[C@@H]1CC[C@H]([C@H]2CC[C@@H]([C@@H](O)CCCCCCCCCC[C@H]3CC(CC(C)=O)C(=O)O3)O2)O1` (some centres not stated) registered a TGI of 19.5 µM.

As for `CCOc1ccc2c(c1)[n+]([O-])c(S(=O)(=O)c1ccc(C)cc1)c(N)[n+]2[O-]`, the TGI is more than 100 µM.

In turn, `CC12CC[C@@H](C(C)(C)O)C1[C@@H](O)CC1(C)C2CCC2[C@@]3(C)CC[C@H](O)C(C)(C)C3C(O)C[C@]21C` (some centres not stated) had a TGI of 29.4 µM.

`CCOC(=O)NC(=O)c1cn(C2OC(COC(=O)CCCCCCCCC(=O)OCC3OC(n4cc(C(=O)NC(=O)OCC)c(=O)[nH]c4=O)C(O)C3O)C(O)C2O)c(=O)[nH]c1=O` (configuration not stated) came in with a TGI of more than 100 µM.

The compound `Cc1ccc(C)c(NC(=O)CC/C(=N\NC(=O)C(=O)NN)C(C)C(=O)c2ccc(O)cc2)c1` (configuration not stated) returned a TGI of more than 100 µM.

For the compound `N=C1CSC2=NC3=C(CCC/C3=C\c3ccccc3)C(c3ccccc3)N12` (configuration not stated), the TGI was 17 µM.

Consider `COc1ccc(CNc2cc(OC)c(OC)c(OC)c2)cc1`, for which the TGI was more than 100 µM.

As for `COc1ccccc1C1C(C(=O)Nc2ccccc2)=C(C)NC(C)=C1C(=O)Nc1ccccc1`, the TGI is more than 100 µM.

`OCc1ccc2[n+](c1)CCC1c3ccccc3NC21` (configuration not stated): the TGI is more than 300 µM.

As to `CCCCCCCCCCCC(=O)CC(=O)c1c(O)cccc1O`, the TGI was found to be 32.2 µM.

As to `CN(C(=O)C12C3C4C1C1C2C3C41C(=O)C(C)(C)C)C(C)(C)C` (configuration not stated), the TGI was more than 100 µM.

For the compound `Cc1cc2c(cc1C)[n+](=O)c(C(=O)CC(=O)C(=O)Nc1c(C(C)C)cccc1C(C)C)c(C)n2[O-]`, the TGI was more than 100 µM.

With `COc1ccc2cc1Oc1ccc(cc1)CC1c3cc(c(OC)cc3CCN1C)Oc1c3c(cc4c1C(C2)N(C)CC4)OCO3` (configuration not stated), the TGI amounted to 25.6 µM.

Compound `COc1ccc(OC)c(NC(=O)C(=O)C(C(C)=O)c2nc3ccc(Cl)cc3[nH]c2=O)c1` (configuration not stated) had a TGI of more than 50 µM.

Regarding `N#CC(C(=N/O)/C(=N/O)C(C#N)c1ccc(Cl)cc1)c1ccc(Cl)cc1` (configuration not stated), the TGI is more than 100 µM.

The test system of a further test is KM20L2 colon. Briefly: growth of human tumour cells (NCI), 48 h.
As to `CC1(Cl)C(=O)NC(=O)N(C2CC(N=[N+]=[N-])C(CO)O2)C1N=[N+]=[N-]` (configuration not stated), the TGI is more than 100 µM.

Turning to `COc1ccc2ccc3c(c2c1)CN1CCc2cc(OC)c(OC)cc2C1C3` (configuration not stated), the TGI is more than 100 µM.

Take `CCCCNC1=C(C(=O)OCC)C(=O)CO1`: the TGI was more than 100 µM.

As to `CC(C)CC(=O)[O-].CC(C)CC(=O)[O-].N.N.N.N.[Co+3].[O-][Cl+3]([O-])([O-])[O-]`, the GI50 is more than 100 µM and the TGI was more than 100 µM.

Regarding `COC(=O)CC(=O)C[P+](c1ccccc1)(c1ccccc1)c1ccccc1`, the TGI was more than 218 µM.

The compound `CCCCN(CCCC)C(=O)C(=O)C(C#N)c1ccc(C)cc1` (configuration not stated) yielded a TGI of more than 100 µM.

`CC1(C)CC(/C=C2/OC(=O)c3ccccc32)=C(C#N)C(=O)O1` gave a TGI of more than 100 µM.

The compound `Cc1nc2c(nc1Cl)nc(Oc1ccc(Cl)cc1)c1ccccc12` showed a TGI of more than 100 µM.

`CC(=O)Nc1ccccc1Sc1ccccc1`: the TGI was more than 100 µM.

Compound `CC1OC(n2cc(F)c(=O)[nH]c2=O)CCC1O` (configuration not stated) gave a TGI of more than 100 µM.

Compound `CCCCCCCCCC[C@@H](O)[C@@H]1CC[C@H]([C@H]2CC[C@@H]([C@@H](O)CCCCCCCCCC[C@H]3CC(CC(C)=O)C(=O)O3)O2)O1` (some centres not stated) registered a TGI of 52.7 µM.

For the compound `CCOc1ccc2c(c1)[n+]([O-])c(S(=O)(=O)c1ccc(C)cc1)c(N)[n+]2[O-]`, the TGI is more than 100 µM.

Compound `CC12CC[C@@H](C(C)(C)O)C1[C@@H](O)CC1(C)C2CCC2[C@@]3(C)CC[C@H](O)C(C)(C)C3C(O)C[C@]21C` (some centres not stated) returned a TGI of 28.3 µM.

Compound `CCOC(=O)NC(=O)c1cn(C2OC(COC(=O)CCCCCCCCC(=O)OCC3OC(n4cc(C(=O)NC(=O)OCC)c(=O)[nH]c4=O)C(O)C3O)C(O)C2O)c(=O)[nH]c1=O` (configuration not stated) yielded a TGI of more than 100 µM.

Regarding `Cc1ccc(C)c(NC(=O)CC/C(=N\NC(=O)C(=O)NN)C(C)C(=O)c2ccc(O)cc2)c1` (configuration not stated), the TGI was more than 100 µM.

In turn, `N=C1CSC2=NC3=C(CCC/C3=C\c3ccccc3)C(c3ccccc3)N12` (configuration not stated) yielded a TGI of 16.8 µM.

As for `COc1ccc(CNc2cc(OC)c(OC)c(OC)c2)cc1`, the TGI was more than 23.7 µM.

`COc1ccccc1C1C(C(=O)Nc2ccccc2)=C(C)NC(C)=C1C(=O)Nc1ccccc1` returned a TGI of more than 100 µM.

`OCc1ccc2[n+](c1)CCC1c3ccccc3NC21` (configuration not stated) had a TGI of more than 300 µM.

Compound `CCCCCCCCCCCC(=O)CC(=O)c1c(O)cccc1O` yielded a TGI of 43.8 µM.

As to `CN(C(=O)C12C3C4C1C1C2C3C41C(=O)C(C)(C)C)C(C)(C)C` (configuration not stated), the TGI is more than 100 µM.

The compound `Cc1cc2c(cc1C)[n+](=O)c(C(=O)CC(=O)C(=O)Nc1c(C(C)C)cccc1C(C)C)c(C)n2[O-]` yielded a TGI of more than 100 µM.

On to `COc1ccc2cc1Oc1ccc(cc1)CC1c3cc(c(OC)cc3CCN1C)Oc1c3c(cc4c1C(C2)N(C)CC4)OCO3` (configuration not stated), for which the TGI came to 6.18 µM.

On to `COc1ccc(OC)c(NC(=O)C(=O)C(C(C)=O)c2nc3ccc(Cl)cc3[nH]c2=O)c1` (configuration not stated), for which the TGI was more than 50 µM.

Consider `N#CC(C(=N/O)/C(=N/O)C(C#N)c1ccc(Cl)cc1)c1ccc(Cl)cc1` (configuration not stated), for which the TGI was more than 100 µM.

In the next test the test system is RXF-631 renal. The experiment in a line: growth of human tumour cells (NCI), 48 h.
`CC1(Cl)C(=O)NC(=O)N(C2CC(N=[N+]=[N-])C(CO)O2)C1N=[N+]=[N-]` (configuration not stated) gave a TGI of more than 100 µM.

The compound `COc1ccc2ccc3c(c2c1)CN1CCc2cc(OC)c(OC)cc2C1C3` (configuration not stated) showed a TGI of more than 100 µM.

`COC(=O)CC(=O)C[P+](c1ccccc1)(c1ccccc1)c1ccccc1`: the TGI is more than 218 µM.

(Values after PubChem BioAssay (NCI).)
